Consider two molecules from patent US20230090868A1, “ANTI-CD30 ANTIBODY-DRUG CONJUGATES AND THEIR USE FOR THE TREATMENT OF NON-HODGKIN LYMPHOMA” (Seagen Inc., priority 2020, published 2023).

Like-named read-outs stand apart in the source and are kept apart here.

Series [1] relates to R/R DLBCL. Particulars: cited from earlier work.
Series [2] concerns the target T1, P-gp (Homo sapiens, UniProt P08183). As to conditions: controlled studies; cited from earlier work.
Series [3] addresses T1, P-gp. Particulars: in vitro; cited from earlier work.
For series [4] the following is noted: cited from earlier work.
For series [5] the following is noted: single 25 mg dose with a high-fat meal, healthy subjects; cited from earlier work.
Series [6] is described as follows: Phase I trial dose-escalation phase: maximum tolerated dose (MTD) and dose-limiting toxicities. The format is in vivo, human. As to conditions: lenalidomide in combination with BV; by mouth Days 1-21 of each 21-day cycle; rel/ref DLBCL patients. From the text: The maximum tolerated dose (MTh) was defined as the dose level immediately below the dose level at which 2 patients of a cohort (of 2 to 6 patients) experienced dose-limiting toxicity during the first cycle. Dose escalations proceeded until the MTD was reached.
Hematologic dose limiting toxicity (DLT) was defined as any of the following that occured during the first cycle that were attributed as possibly, probably, or definitely related to the study treatment: • Grade 4 neutropenia >7 day duration • Grade 4 infection with grade 3 or 4 neutropenia (life-threatening sepsis) • Grade 4 thrombocytopenia associated with life-threatening bleeding or requiring more than 1 transfusion • Treatment delay >14 days due to hematologic toxicity
Non-hematologic DLT was defined as any possibly, probably, or definitely related grade 3 or grade 4 non-hematologic toxicity that occured during the first cycle with the following specific exceptions: • Grade 3 or 4 nausea, vomiting, or anorexia that returns to Grade 1 prior to the start of Cycle 2 • Grade 3 metabolic abnormalities (e.g., hyperglycemia) • Grade 3 fatigue
Dose escalations proceeded as follows after the occurrence of dose-limiting toxicity (DLT):
Dose escalation occurred after all patients in the cohort completed the first cycle according to the following scheme: […]

The subject of series [7] is CD30+ cell lines. As to conditions: in vitro; cited from earlier work.
Series [8] relates to xenograft models of Hodgkin disease. As to conditions: SCID mouse xenograft models of Hodgkin disease; cited from earlier work.

T1 sequence (P08183 whole entry): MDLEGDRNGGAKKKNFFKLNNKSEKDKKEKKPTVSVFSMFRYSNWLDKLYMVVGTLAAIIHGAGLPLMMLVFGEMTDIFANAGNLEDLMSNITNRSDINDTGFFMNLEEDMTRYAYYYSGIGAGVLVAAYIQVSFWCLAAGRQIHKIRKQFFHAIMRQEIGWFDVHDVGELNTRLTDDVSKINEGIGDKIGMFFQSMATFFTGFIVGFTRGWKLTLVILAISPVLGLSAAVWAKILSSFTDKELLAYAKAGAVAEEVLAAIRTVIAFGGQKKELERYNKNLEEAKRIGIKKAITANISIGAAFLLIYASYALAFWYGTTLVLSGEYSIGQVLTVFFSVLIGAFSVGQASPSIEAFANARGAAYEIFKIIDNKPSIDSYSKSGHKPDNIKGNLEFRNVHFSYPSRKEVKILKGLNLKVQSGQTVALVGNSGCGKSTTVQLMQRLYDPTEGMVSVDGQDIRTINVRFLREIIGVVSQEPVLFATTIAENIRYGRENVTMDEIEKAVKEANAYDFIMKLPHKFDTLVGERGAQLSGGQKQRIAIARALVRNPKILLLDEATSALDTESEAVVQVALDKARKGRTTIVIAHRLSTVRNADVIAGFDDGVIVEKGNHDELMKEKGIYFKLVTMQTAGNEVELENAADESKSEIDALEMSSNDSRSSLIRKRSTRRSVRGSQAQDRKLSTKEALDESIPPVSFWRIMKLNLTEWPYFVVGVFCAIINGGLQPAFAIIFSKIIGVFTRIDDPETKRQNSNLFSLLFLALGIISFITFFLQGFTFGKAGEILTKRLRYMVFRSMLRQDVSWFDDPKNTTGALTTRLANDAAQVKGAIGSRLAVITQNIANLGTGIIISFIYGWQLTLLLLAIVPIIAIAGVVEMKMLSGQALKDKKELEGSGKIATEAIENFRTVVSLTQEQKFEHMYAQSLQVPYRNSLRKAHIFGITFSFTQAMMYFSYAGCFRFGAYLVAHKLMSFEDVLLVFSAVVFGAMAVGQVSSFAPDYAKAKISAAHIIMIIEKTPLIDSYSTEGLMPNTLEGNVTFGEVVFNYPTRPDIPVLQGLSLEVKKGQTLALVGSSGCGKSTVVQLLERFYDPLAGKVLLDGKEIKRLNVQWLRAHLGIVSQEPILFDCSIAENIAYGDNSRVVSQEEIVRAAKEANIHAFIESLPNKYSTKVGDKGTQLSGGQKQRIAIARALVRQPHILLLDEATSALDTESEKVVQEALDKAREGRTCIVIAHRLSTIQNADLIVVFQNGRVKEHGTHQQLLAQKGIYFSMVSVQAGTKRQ

Turning to `Nc1cccc2c1CN(C1CCC(=O)NC1=O)C2=O` (racemic) [lenalidomide, (RS)-3-(4-Amino-1-oxo-1,3-dihydro-2H-isoindol-2-yl)piperidine-2,6-dione], the “median progression-free survival (PFS)” value in series [1] (GCB subjects, P=0.550) was 10.1 weeks; in series [1] (all subjects with R/R DLBCL, P=0.041), 13.6 weeks; in series [1] (non-germinal-center B-cell-like (non-GCB) subjects, P=0.021), 15.1 weeks. Besides, the “objective response rate (ORR)” value in series [1] (subjects with R/R DLBCL) is on record as 27.5%. The “PK interactions with P-gp substrates/inhibitors” value in series [2] is recorded as “does not have clinically significant PK interactions”. Also, the “substrate of P-gp” value in series [3] is “weak substrate”. In series [4] (multiple doses at the recommended dosage), the drug accumulation result is “does not result in drug accumulation”. Also, in series [4] (single and multiple doses, subjects with MM or MDS, (approximately 0.5 to 6 hours)), the “time post-dose at which maximum plasma concentrations occurred” value was 1 h. For the same molecule, the “decrease in area under the concentration-time curve” value in series [5] is approximately 20%. For the same molecule, the “decrease in maximum plasma concentration (Cmax)” value in series [5] is given as approximately 50%. Also, the “maximum tolerated dose (MTD)” value in series [6] came to 20 mg.
Take “cAC10: chimeric IgG1 monoclonal antibody that specifically binds CD30”: in series [7], the “growth arrest of CD30+ cell lines” value is reported as “induces growth arrest”. The antitumor activity entry in series [8] is listed as “pronounced antitumor activity”.
